One compound from ChEMBL document CHEMBL6096723, “Discovery of novel capsaicin analogs as TRPV1 inhibitors for the treatment of idiopathic pulmonary fibrosis” (Eur J Med Chem, 2025) can be followed below.

Structures are written as SMILES. The source made the active and inactive calls. No cut-off for these calls is given here.

Series [1] is described as follows: Acute toxicity in Kunming female mouse assessed as Total bilirubin (T-Bil) level at 180 mg/kg, ip measured after 14 days (reference value: 10.79 micromol/L). Format: organism-based. As to conditions: in vivo, 336 h, time 14 day.
Series [2] in a line: Acute toxicity in Kunming mouse assessed as organ lesions in heart at 180 mg/kg, ip measured after 14 days by H and E staining based assay. The class given is organism-based. Particulars: in vivo, 336 h, time 14 day.
In the next series the test system is NIH3T3. Put plainly: Inhibition of TGFbeta-induced p38 phosphorylation in mouse NIH3T3 cells at 1 to 10 uM by Western blot analysis. Format: functional, cell-based. As to conditions: dose 1-10 µM. On the technique in general: Immunoblotting shows a protein as a band on a membrane.
Series [3] has as its system Mus musculus. As to the kind of experiment: Anti-pulmonary fibrotic activity against bleomycin-induced pulmonary fibrosis mouse model assessed as inhibition of collagen I expression in lung tissue at 10 to 20 mg/kg, ip administered every alternative day for 8 to 21 days after modeling by immunohistochemical staining based assay. Particulars: dose 10-20 mg/kg, time 8-21 day. The class given is functional, organism-based.

The subject of series [4] is Mus musculus. Put plainly: Anti-pulmonary fibrotic activity against bleomycin-induced pulmonary fibrosis mouse model assessed as reduction in BLM-induced […] expression in lung tissue at 10 to 20 mg/kg, ip administered every alternative day for 8 to 21 days after modeling. Format: functional, organism-based. As to conditions: dose 10-20 mg/kg, time 8-21 day.
Series [5] is described as follows: Acute toxicity in Kunming female mouse assessed as Direct bilirubin (D-Bil) level at 180 mg/kg, ip measured after 14 days (reference value: 3.37 micromol/L). As to conditions: in vivo, 336 h, time 14 day. The class given is organism-based.
Series [6] has as its system Rattus norvegicus. Put plainly: Zeta in Sprague-Dawley rat at 50 mg/kg, iv measured upto 4 hrs by UPLC-MS/MS analysis. The class given is ADME, organism-based. Particulars: in vivo.
The nature of series [7]: Acute toxicity in Kunming mouse assessed as organ lesions in liver at 180 mg/kg, ip measured after 14 days by H and E staining based assay. The class given is organism-based. As to conditions: in vivo, 336 h, time 14 day.
Series [8] is described as follows: Acute toxicity in Kunming male mouse assessed as Creatinine (CREA) level at 180 mg/kg, ip measured after 14 days (reference value: 12.4 micromol/L). Particulars: in vivo, 336 h, time 14 day. The class given is organism-based.
Series [9] concerns Mus musculus. Put plainly: Anti-fibrotic activity against bleomycin-induced pulmonary fibrosis mouse model assessed as increase in forced vital capacity (FVC) at 10 to 20 mg/kg, ip administered every alternative day for 8 to 21 days after modeling. Format: functional, organism-based. As to conditions: dose 10-20 mg/kg, time 8-21 day.
In series [10] the target is Transient receptor potential cation channel subfamily V member 1 (Mus musculus) (UniProt Q704Y3). Put plainly: Thermal stabilization of TRPV1 in mouse NIH3T3 cells assessed as reduction in TRPV1 degradation at 10 uM at 40 to 65 degreeC measured after 30 mins by CETSA. Format: cell-based.
Series [11] in a line: Acute toxicity in Kunming female mouse assessed as Urea level at 180 mg/kg, ip measured after 14 days (reference value: 5.74 mmol/L). Format: organism-based. Particulars: in vivo, 336 h, time 14 day.
A short description of series [12]: Apparent volume of distribution in Sprague-Dawley rat at 50 mg/kg, iv measured upto 4 hrs by UPLC-MS/MS analysis. Format: ADME, organism-based. As to conditions: in vivo, read-out: Vz.
Series [13] can be described thus: Oral bioavailability in Sprague-Dawley rat at 50 mg/kg measured upto 4 hrs by UPLC-MS/MS analysis. The class given is ADME, organism-based. As to conditions: in vivo.
A short description of series [14]: VRT(0 to infinity) in Sprague-Dawley rat at 50 mg/kg, po measured upto 4 hrs by UPLC-MS/MS analysis. The class given is ADME, organism-based. As to conditions: in vivo.
Series [15] deals with Rattus norvegicus. Put plainly: Cz in Sprague-Dawley rat at 50 mg/kg, po measured upto 4 hrs by UPLC-MS/MS analysis. Format: ADME, organism-based. As to conditions: in vivo.
Series [16] in a line: Acute toxicity in Kunming male mouse assessed as Direct bilirubin (D-Bil) level at 180 mg/kg, ip measured after 14 days (reference value: 6.21 micromol/L). Format: organism-based. Particulars: in vivo, 336 h, time 14 day.
A short description of series [17]: Acute toxicity in Kunming male mouse assessed as Lactate dehydrogenase (LDH) level at 180 mg/kg, ip measured after 14 days (reference value: 1776.1 U/L). As to conditions: in vivo, 336 h, time 14 day. Format: organism-based.
Series [18] is described as follows: MRT(0 to t) in Sprague-Dawley rat at 50 mg/kg, iv measured upto 4 hrs by UPLC-MS/MS analysis. Particulars: in vivo. The class given is ADME, organism-based.
Series [19] has as its system Mus musculus. As to the kind of experiment: Anti-pulmonary fibrotic activity against bleomycin-induced pulmonary fibrosis mouse model assessed as inhibition of Smad2 phosphorylation in lung tissue at 10 to 20 mg/kg, ip administered every alternative day for 8 to 21 days after modeling by immunohistochemical staining based assay. Format: functional, organism-based. As to conditions: dose 10-20 mg/kg, time 8-21 day.

Series [20] is described as follows: AUC(0 to infinity) in Sprague-Dawley rat at 50 mg/kg, iv measured upto 4 hrs by UPLC-MS/MS analysis. The class given is ADME, organism-based. As to conditions: in vivo.
Series [21] can be described thus: MRT(0 to t) in Sprague-Dawley rat at 50 mg/kg, po measured upto 4 hrs by UPLC-MS/MS analysis. The class given is ADME, organism-based. Particulars: in vivo.
Series [22] deals with Transient receptor potential cation channel subfamily V member 1 (Homo sapiens) (UniProt Q8NER1). As to the kind of experiment: Inhibition of TRPV1 (unknown origin) overexpressed in si-TRPV1-2 transfected HEK-293T cells assessed as decrease in TGFbeta-induced alpha-SMA expression at 10 uM measured after 48 hrs incubation by Western blotting analysis. The class given is cell-based.

One may read the bioavailability as the share of a dose that reaches the circulation, judged against a reference dose that is usually intravenous. High values mean good availability, low ones poor availability. As a reminder, the MRT last is the average time that molecules of a dose stay in the body. One may read the AUC as the area under the concentration-time curve, a measure of exposure. High values mean high exposure, low ones low exposure.

Sequence of Transient receptor potential cation channel subfamily V member 1 (Homo sapiens) (Q8NER1 whole entry): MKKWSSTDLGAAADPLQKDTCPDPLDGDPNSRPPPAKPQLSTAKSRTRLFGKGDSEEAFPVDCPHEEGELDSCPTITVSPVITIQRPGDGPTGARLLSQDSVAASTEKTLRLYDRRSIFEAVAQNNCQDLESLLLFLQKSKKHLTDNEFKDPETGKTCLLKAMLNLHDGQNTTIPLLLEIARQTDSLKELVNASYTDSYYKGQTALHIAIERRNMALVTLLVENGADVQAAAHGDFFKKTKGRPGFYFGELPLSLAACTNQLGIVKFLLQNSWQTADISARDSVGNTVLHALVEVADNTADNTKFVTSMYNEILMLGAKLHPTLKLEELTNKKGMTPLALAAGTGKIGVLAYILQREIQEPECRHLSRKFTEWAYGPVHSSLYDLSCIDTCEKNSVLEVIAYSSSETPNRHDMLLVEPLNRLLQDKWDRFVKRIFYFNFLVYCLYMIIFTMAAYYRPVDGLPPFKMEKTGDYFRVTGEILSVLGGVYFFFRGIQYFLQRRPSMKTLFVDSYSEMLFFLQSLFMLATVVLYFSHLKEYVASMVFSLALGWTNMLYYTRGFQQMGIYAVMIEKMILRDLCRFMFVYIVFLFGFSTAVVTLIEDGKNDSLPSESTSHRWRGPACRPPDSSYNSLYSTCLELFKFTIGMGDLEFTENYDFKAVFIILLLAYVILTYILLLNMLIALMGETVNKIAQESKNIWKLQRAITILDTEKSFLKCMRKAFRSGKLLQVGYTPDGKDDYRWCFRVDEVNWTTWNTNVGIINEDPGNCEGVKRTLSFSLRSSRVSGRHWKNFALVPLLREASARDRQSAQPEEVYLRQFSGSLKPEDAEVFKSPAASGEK
Sequence of Transient receptor potential cation channel subfamily V member 1 (Mus musculus) (Q704Y3 whole entry): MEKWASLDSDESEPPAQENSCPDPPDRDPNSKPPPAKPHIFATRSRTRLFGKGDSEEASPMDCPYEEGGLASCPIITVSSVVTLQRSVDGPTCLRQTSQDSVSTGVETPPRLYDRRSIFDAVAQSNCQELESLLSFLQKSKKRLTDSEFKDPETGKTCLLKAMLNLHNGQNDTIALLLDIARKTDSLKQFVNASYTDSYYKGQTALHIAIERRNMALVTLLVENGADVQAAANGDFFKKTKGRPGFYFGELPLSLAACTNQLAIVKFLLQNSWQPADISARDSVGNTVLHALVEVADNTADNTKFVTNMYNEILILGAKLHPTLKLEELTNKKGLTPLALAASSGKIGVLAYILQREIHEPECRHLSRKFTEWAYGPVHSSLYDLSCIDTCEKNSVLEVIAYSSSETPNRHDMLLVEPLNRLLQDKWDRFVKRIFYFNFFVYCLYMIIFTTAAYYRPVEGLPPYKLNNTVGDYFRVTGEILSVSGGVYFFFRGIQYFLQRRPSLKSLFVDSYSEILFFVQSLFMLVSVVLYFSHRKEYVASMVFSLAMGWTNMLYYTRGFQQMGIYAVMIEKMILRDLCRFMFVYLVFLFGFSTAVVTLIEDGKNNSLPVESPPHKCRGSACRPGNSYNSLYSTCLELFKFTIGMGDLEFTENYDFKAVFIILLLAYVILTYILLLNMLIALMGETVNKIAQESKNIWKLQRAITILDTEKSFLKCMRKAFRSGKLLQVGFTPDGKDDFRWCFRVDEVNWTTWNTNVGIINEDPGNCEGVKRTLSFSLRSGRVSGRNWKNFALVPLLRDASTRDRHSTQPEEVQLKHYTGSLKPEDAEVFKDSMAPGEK

Consider `O=C(/C=C/c1ccc(O)c(O)c1)CCCCc1ccccc1`, for which the Activity in series [1] was 18.82 µmol/L; in series [2], “Non-toxic”; in series [5], 1.02 µmol/L; with Rattus norvegicus [6], 1.07; in [7], “Non-toxic”; in series [8], 15.3 µmol/L. Moreover, the Activity came to 6.51 mmol/L in series [11], 3.94 µmol/L in [16] and 2486.8 U/L in [17]. In addition, the inhibition result with NIH3T3 is “Active”. Further, the outcome (in the series with Mus musculus [3]; in the series with Mus musculus [4]; with Mus musculus [9]; in series [10]; in the series with Mus musculus [19]) was Active. In series [12], the Vd is 7.17 L/kg. For the same compound, the bioavailability in series [13] worked out at 6.5%. The VRT in series [14] worked out at 1.28 hr2. This compound showed a Cz in the series on Rattus norvegicus [15] of 2.54 µg/L. Further, the MRT last at 4 h in series [18] was found to be 44.6 min; in series [21], 73.2 min. In addition, in [20], the AUC was determined as 2670.601 ng·h/mL. Moreover, the inhibition entry in series [22] is “inactive”.
